Values quoted from earlier work, collected in patent publication US8366600B2, “Polyamine enhanced formulations for triptan compound iontophoresis” (NuPathe Inc., priority 2008, dated 2013).

How the values were obtained:
[1] = for Cmax: expected maximum concentration in the patient's plasma; for AUC: total plasma concentration
[2] = transdermal, iontophoresis vs passive

SMILES	Cmax [1] [ng/mL]	AUC [1]	rate of iontophoretic transport relative to passive transport [2] [fold]
CN(C)CCc1c[nH]c2ccc(C[C@H]3COC(=O)N3)cc12 [Zolmitriptan]	4	20 ng·h/mL	–
CN1CCC[C@@H]1Cc1c[nH]c2ccc(CCS(=O)(=O)c3ccccc3)cc12 [Eletriptan]	200	1,300 ng · hr/mL	–
CNS(=O)(=O)CCc1ccc2[nH]cc(C3CCN(C)CC3)c2c1 [Naratriptan]	8	75 ng·h/mL	–
CN(C)CCc1c[nH]c2ccc(CS(=O)(=O)N3CCCC3)cc12 [Almotriptan]	52	310 ng·h/mL	–
CNS(=O)(=O)Cc1ccc2[nH]cc(CCN(C)C)c2c1 [Sumatriptan]	–	–	385
CN(C)CCc1c[nH]c2ccc(Cn3cncn3)cc12 [Rizatriptan]	22	78 ng·h/mL	–
CN[C@@H]1CCc2[nH]c3ccc(C(N)=O)cc3c2C1 [Frovatriptan]	5	45 ng·h/mL	–
